# US7705065B2, “Photoinitiator functionalized with alkoxy groups” (Xerox Corporation, priority 2007, dated 2010)
# Assay: Solubility of about 10 wt % photoinitiator in alkoxy-containing curable monomers
# Format: physicochemical
# Conditions: about 10 wt % solutions in each of SR9003, SR209, SR399LV and SR454; about room temperature (approximately 22° C. to 27° C.)
# From the text: The following monomers were used for testing: 1) SR9003 (propoxylated neopentyl glycol diacrylate), 2) SR209 (tetraethylene glycol dimethacrylate), 3) SR399LV (low viscosity dipentaerythritol pentacrylate esters), and 4) SR454 (ethoxylated trimethylolpropane triacrylate esters).
smiles,measurement,value
"CC(C)(O)C(=O)c1ccc(OCCO)cc1 [IRGACURE® 2959, 4-(2-hydroxyethyloxy)phenyl-(2-hydroxy-2-propyl) ketone]",solubility in monomers,insoluble
